From patent publication US20040014697A1, “Melanoma antigenic peptides” (priority 1998, published 2004)

Tested on: Hurley RI 000 tumor infiltrating lymphocytes (cytotoxic T cell specific for the G9-209 epitope encoded by the human melanoma associate protein gp100)
Assay: sensitization of tumor infiltrating lymphocytes and interferon-γ release
Format: cell-based
Settings: Hurley RI 000 TIL, G9-209 (gp100) specific
Excerpt: This invention provides novel, synthetic peptide sequences which are useful as components of melanoma vaccines and to expand immune effector cells that are specific for melanoma. […] These assay methods are known in the art and disclosed in Zugel, U. et al. (1998) J Immunol. 161:1705-1709) and Salgaller, M. L. et al. (1995) Infra. The peptide sequences of the present invention differ from the natural epitope (ITDQVPFSV) (Seq. ID No. 5) in two ways: (1) they contain mutation sin the putative HLA-A2 binding domain (amino acid residues 1, 2, and 9) conferring tighter binding to the MHC, and (2) they contain mutations in the putative T cell receptor-binding domain (amino acid residues 3-8) resulting in an apparent increased avidity for the T cell receptor. They also are novel over the synthetic peptides disclosed by Salgaller, et al. (1995) Cancer Res. 55:4972-4979.

Sequence | sensitize tumor infiltrating lymphocytes and interferon-γ release
FLDQVAFXV | shown to sensitize
FLFSWYAXV | shown to sensitize
